“Also recorded” adds a separate entry of the source.
Legend:
rats [1] = experiment: FCA induced hypersensitivity rat model (intraplantar FCA, weight bearing); format: in vivo; settings: 1 hour post dose; for weight bearing % reversal: 24 hrs after FCA; for effect on FCA induced hypersensitivity: p.o., intraplantar FCA
Protocol: (§1) Naïve weight bearing readings were taken. The hypersensitivity to pain was measured using the Rat incapacitance tester (Linton instruments). All rats (180-220 g) received an intraplantar injection of 100 ul of FCA (Freund's complete adjuvant) into the left hind paw. The FCA was sonicated for 15 minutes prior to use. 24 hrs after administration of the FCA, pre-dose weight bearing readings were taken. All animals were then ranked and randomised for dosing according to their FCA window (predose difference in grams—naïve difference in grams). Rats with FCA window less than 30 were excluded from the study.
Animals were then dosed orally with either vehicle, SB42457 (0.01, 0.1, 1 and 10 mg/kg p.o.) or celecoxib (10 mg/kg p.o.) as appropriate according to ranking and randomisation. Animals were assessed in the weight bearing apparatus 1 hour post dose.
The study was blind and randomised by FCA window using the Latin square method. % reversals were calculated by using the naïve, pre-dose and post dose values as follows: % Reversal=[(Pre-dose−Post-dose)/(Pre-dose−Naïve)]×100.
Graphs were plotted using Prism3. Statistical analysis was carried out using ANOVA and Fischer LSD test from statistical package Statistica 6.
In this study a positive control was also tested (celecoxib).
as §1, with “(200-220” for “(180-220”
Animals were then dosed orally with vehicle, SB-792988-A (0.01, 0.1, 1 and 10 mg/kg p.o.), SB-399885-A (10 mg/kg p.o.) or celecoxib (10 mg/kg p.o.) as appropriate according to ranking and randomisation. Animals were assessed in the weight bearing apparatus 1 hour post dose.
Graphs and were plotted using Prism3. Statistical analysis was carried out using ANOVA and Fischer LSD test from statistical package Statistica 6.

rats [2] = experiment: Chronic Constriction Injury (CCI) model of neuropathic pain in rats (mechanical allodynia, Von Frey hairs); format: in vivo, rat; settings: 10 mg/kg b.i.d. po
Protocol: Under Isoflurane anaesthesia, the sciatic nerve in the left leg of the rat was exposed at mid thigh level and 4 loose ligatures of Chromic 4.0 gut tied around it. The wound was closed and secured with staples. The Sham operated animals underwent the same surgical technique except that the nerve was not ligated. […] The presence of mechanical (tactile) allodynia was assessed using the manual application of Von Frey hair monofilaments (Stoelting, Wood Dale, Ill., USA). Animals were placed in clear Perspex boxes on a raised perforated metallic platform, from below which the monofilaments were applied in ascending order to the plantar region of the hind paw (range: 1.4 g-26 g). Each hair was applied for approx. 3-5 seconds until a withdrawal response was observed. The lowest hair to give a withdrawal was recorded as the response after confirmation with reapplication of lower and/or higher hairs within the range tested.
All data are expressed as mean±s.e.m. Statistical analysis was carried out using Repeated Measures ANOVA (Statistica Version 6) to compare the vehicle treated groups with the drug treated groups (P<0.05 considered significant). Area Under Curve (AUC) calculations were performed within Excel and statistical analysis was carried out using a one-way ANOVA followed by Fischer LSD post-hoc test (Statistica Version 6) to compare the vehicle treated CCI and Sham groups with the drug treated groups (P<0.05 considered significant). Data recorded in Excel (Microsoft XP) and graphs produced in GraphPad Prism (Version 4).
By 8 days post-surgery neuropathy was beginning to develop as mechanical allodynia (assessed using mVFHs) was evident in all CCI operated groups compared to the Sham operated animals. This was maintained as a stable baseline until day 23 post-surgery (FIG. 12), when the animals were randomised and then chronically dosed with either SB742457 (10 mg/kg b.i.d. po), gabapentin (30 mg/kg b.i.d. po) or vehicle (1% methylcellulose; b.i.d. po) for 8 days (days 26-33 post-surgery). […] Three days after cessation of treatment the withdrawal thresholds of the drug treated groups had decreased back towards vehicle treated baseline levels.

| SMILES | weight bearing % reversal (rats [1]; 0.01 mg/kg p.o., Table 5) | weight bearing % reversal (rats [1]; 0.1 mg/kg p.o., Table 5) | weight bearing % reversal (rats [1]; 1 mg/kg p.o., Table 5) | weight bearing % reversal (rats [1]; 10 mg/kg p.o., Table 5) | effect on FCA induced hypersensitivity (rats [1]) | reversal of mechanical allodynia after 5 days of dosing (rats [2]; after 5 days of dosing) | reversal of mechanical allodynia after 8 days of dosing (rats [2]; after 8 days of dosing) | time to significant reversal of CCI-induced mechanical allodynia (rats [2]; after a single dose) | comparison with the positive control gabapentin (30 mg/kg b.i.d. po) (rats [2]; throughout the study) | weight bearing % reversal (rats [1]; 0.01 mg/kg p.o., Table 7) | weight bearing % reversal (rats [1]; 0.1 mg/kg p.o., Table 7) | weight bearing % reversal (rats [1]; 1 mg/kg p.o., Table 7) | weight bearing % reversal (rats [1]; 10 mg/kg p.o., Table 7) |
| --- | --- | --- | --- | --- | --- | --- | --- | --- | --- | --- | --- | --- | --- |
| O=S(=O)(c1ccccc1)c1cnc2c(N3CCNCC3)cccc2c1 [SB742457, 3-Phenylsulfonyl-8-piperazin-1-yl-quinoline] | 27.68 ± 6.39% | 53.09 ± 5.68% | 60.17 ± 6.73% | 76.97 ± 7.17% | dose-dependent reversal | not significantly different to Sham levels; also recorded: maximal reversal back to Sham levels | maximal reversal (P<0.001) back to Sham levels | ≤ 1 h | not significantly different to each other | – | – | – | – |
| Cl.O=S(=O)(c1cccc(F)c1)c1cnc2c(N3CCNCC3)cccc2c1 [SB792988A, 3-[(3-Fluorophenyl)sulfonyl]-8-(1-piperazinyl)quinoline Hydrochloride] | – | – | – | – | dose-dependent reversal | – | – | – | – | 22.91 ± 4.13% | 22.11 ± 5.18% | 38.76 ± 5.88% | 67.00 ± 5.08% |

Reference: patent publication US20100041672A1, “USE OF QUINOLINE DERIVATIVES IN THE TREATMENT OF PAIN AND IRRITABLE BOWEL SYNDROME” (GLAXO GROUP LIMITED, priority 2007, published 2010)
